Earlier results as cited in US11926624B2 (INTERNATIONAL PAPER COMPANY, priority 2018, dated 2024).
Like-named read-outs stand apart in the source and are kept apart here.

Columns and labels:
Renilla Luciferase = biological target: T1, Renilla Luciferase (Renilla reniformis, UniProt P27652); settings: for Initial Intensity / Total Light / Aem: with Renilla Luciferase; for Initial Intensity: luminescent intensity as % initial intensity; for Total Light: native = 100
T1 sequence (P27652 1-311): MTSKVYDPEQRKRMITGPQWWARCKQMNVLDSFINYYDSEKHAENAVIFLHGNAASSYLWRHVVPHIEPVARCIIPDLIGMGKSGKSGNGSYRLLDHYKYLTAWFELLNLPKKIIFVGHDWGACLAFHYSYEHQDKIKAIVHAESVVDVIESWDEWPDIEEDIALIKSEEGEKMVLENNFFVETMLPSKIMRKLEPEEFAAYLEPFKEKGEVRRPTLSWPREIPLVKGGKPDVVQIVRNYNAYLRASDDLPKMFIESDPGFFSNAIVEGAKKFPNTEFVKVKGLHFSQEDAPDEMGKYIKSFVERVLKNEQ

[1] = tested on: Gaussia luciferase (Gluc)
aequorin = biological target: T2, aequorin (Aequorea victoria, UniProt P07164); settings: for luminescence intensity relative to coelenterazine (native form): coelenterazine-aequorin/apoaequorin complex
T2 sequence (P07164 8-196): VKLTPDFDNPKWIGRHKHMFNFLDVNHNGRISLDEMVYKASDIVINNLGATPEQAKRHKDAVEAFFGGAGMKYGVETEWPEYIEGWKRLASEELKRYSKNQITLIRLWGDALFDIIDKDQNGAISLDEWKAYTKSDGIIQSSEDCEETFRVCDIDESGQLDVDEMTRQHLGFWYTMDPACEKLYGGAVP

Compound: 8-benzyl-2-(4-hydroxybenzyl)-6-(4-hydroxyphenyl)imidazo[1,2-α]pyrazin-3(7H)-one [coelenterazine]
- Initial Intensity (Renilla Luciferase; listed as native): 45%
- Initial Intensity (Renilla Luciferase; listed as native coelenterazine): about 45%
- Total Light (Renilla Luciferase): 100%

Compound: O=c1c(Cc2ccccc2)nc2c(Cc3ccccc3)[nH]c(-c3ccccc3)cn1-2 [coelenterazine 400a, (2-2′(4-dehydroxy)) coelenterazine]
- oxidation with Gaussia luciferase [1]: does not oxidize well
- emission maximum (Renilla Luciferase): about 400 nm
- substrate quality for Renilla luciferase (Renilla Luciferase): good substrate

Compound: O=c1c(Cc2ccc(O)cc2)nc2c(CC3CCCC3)[nH]c(-c3ccc(O)cc3)cn1-2 [coelenterazine cp]
- Aem (Renilla Luciferase): 470 nm
- Total Light (Renilla Luciferase): 23%

Compound: O=c1c(Cc2ccc(F)cc2)nc2c(Cc3ccccc3)[nH]c(-c3ccc(O)cc3)cn1-2 [coelenterazine f]
- luminescence intensity relative to coelenterazine (native form) (aequorin): about 20 times
- emission maximum longer than that of the native form (aequorin; coelenterazine-apoaequorin complex): about 8 nm
- Aem (Renilla Luciferase): 473 nm
- Initial Intensity (Renilla Luciferase): 45%
- Total Light (Renilla Luciferase): 28%

Compound: O=c1c(Cc2ccc(F)cc2)nc2c(CC3CCCC3)[nH]c(-c3ccc(O)cc3)cn1-2 [coelenterazine fcp]
- luminescence intensity relative to coelenterazine (native form) (aequorin): about 135 times
- substrate quality for Renilla luciferase (Renilla Luciferase): poor substrate
